The record followed here is article PMC8617627, “Novel DYRK1A Inhibitor Rescues Learning and Memory Deficits in a Mouse Model of Down Syndrome” (Pharmaceuticals, 2021).

Assay in all cases: Kinase profile (33P ATP filter binding)
Format in all cases: biochemical

One assay has as its target ABL (Homo sapiens, UniProt P00519). The conditions noted are these: read-out: Remaining protein kinase activity.
The next assay deals with EPH-A4 (Homo sapiens, UniProt P54764). The conditions noted are these: read-out: Remaining protein kinase activity.
The target in another assay is T1, EPH-B2 (Homo sapiens, UniProt P29323).
T1 sequence (P29323 19-1055): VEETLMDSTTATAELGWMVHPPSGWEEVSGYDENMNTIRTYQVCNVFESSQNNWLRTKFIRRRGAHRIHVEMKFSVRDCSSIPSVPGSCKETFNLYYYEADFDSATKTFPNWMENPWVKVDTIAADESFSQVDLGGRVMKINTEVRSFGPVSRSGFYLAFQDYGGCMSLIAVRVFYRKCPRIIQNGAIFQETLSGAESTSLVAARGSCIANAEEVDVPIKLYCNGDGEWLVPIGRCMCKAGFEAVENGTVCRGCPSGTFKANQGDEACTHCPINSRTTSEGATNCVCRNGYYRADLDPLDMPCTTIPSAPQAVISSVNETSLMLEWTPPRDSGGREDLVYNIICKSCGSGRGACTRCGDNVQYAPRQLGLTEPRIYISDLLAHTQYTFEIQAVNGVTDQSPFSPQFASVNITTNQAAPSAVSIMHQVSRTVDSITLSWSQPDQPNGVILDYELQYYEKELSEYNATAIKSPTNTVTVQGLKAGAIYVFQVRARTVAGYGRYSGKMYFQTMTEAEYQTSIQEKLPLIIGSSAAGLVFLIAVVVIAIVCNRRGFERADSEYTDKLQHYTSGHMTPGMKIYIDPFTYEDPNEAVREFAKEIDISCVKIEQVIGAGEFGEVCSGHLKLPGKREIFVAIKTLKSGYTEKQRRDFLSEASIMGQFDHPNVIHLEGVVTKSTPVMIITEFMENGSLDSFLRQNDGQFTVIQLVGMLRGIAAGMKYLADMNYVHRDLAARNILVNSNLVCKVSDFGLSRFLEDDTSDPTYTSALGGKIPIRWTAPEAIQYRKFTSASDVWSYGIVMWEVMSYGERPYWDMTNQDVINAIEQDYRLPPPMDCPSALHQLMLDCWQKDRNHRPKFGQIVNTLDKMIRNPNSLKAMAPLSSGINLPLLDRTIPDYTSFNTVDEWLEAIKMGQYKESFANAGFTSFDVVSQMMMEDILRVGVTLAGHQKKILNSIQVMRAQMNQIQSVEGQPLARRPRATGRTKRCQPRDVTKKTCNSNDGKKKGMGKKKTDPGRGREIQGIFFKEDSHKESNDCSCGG

The target in another assay is Lck (Homo sapiens, UniProt P06239). The conditions noted are these: read-out: Remaining protein kinase activity.
For a further assay, the target named is MAPKAP-K2 (Homo sapiens, UniProt P49137). The conditions noted are these: read-out: Remaining protein kinase activity.
A further assay has as its target MINK1 (Homo sapiens, UniProt Q8N4C8). The note with it: read-out: Remaining protein kinase activity.
The target in another assay is PIM3 (Homo sapiens, UniProt Q86V86). The note with it: read-out: Remaining protein kinase activity.
The target of the next assay is TESK1 (Homo sapiens, UniProt Q15569). The note with it: read-out: Remaining protein kinase activity.
The target in another assay is T2, p38d MAPK (Homo sapiens, UniProt O15264).
T2 sequence (O15264 1-365): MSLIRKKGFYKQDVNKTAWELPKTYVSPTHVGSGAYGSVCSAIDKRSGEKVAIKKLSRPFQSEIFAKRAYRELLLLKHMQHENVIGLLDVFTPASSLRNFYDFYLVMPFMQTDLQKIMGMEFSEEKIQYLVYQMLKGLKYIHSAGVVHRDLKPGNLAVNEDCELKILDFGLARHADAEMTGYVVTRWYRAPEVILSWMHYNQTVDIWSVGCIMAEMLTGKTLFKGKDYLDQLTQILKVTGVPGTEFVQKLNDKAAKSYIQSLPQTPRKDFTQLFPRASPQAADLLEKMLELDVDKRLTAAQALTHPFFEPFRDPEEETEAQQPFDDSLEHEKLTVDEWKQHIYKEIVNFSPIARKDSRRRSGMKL
The note with it: read-out: Remaining protein kinase activity.

Where two headings read alike, the source gives them in different places.

Sequence of ABL (P00519 whole entry): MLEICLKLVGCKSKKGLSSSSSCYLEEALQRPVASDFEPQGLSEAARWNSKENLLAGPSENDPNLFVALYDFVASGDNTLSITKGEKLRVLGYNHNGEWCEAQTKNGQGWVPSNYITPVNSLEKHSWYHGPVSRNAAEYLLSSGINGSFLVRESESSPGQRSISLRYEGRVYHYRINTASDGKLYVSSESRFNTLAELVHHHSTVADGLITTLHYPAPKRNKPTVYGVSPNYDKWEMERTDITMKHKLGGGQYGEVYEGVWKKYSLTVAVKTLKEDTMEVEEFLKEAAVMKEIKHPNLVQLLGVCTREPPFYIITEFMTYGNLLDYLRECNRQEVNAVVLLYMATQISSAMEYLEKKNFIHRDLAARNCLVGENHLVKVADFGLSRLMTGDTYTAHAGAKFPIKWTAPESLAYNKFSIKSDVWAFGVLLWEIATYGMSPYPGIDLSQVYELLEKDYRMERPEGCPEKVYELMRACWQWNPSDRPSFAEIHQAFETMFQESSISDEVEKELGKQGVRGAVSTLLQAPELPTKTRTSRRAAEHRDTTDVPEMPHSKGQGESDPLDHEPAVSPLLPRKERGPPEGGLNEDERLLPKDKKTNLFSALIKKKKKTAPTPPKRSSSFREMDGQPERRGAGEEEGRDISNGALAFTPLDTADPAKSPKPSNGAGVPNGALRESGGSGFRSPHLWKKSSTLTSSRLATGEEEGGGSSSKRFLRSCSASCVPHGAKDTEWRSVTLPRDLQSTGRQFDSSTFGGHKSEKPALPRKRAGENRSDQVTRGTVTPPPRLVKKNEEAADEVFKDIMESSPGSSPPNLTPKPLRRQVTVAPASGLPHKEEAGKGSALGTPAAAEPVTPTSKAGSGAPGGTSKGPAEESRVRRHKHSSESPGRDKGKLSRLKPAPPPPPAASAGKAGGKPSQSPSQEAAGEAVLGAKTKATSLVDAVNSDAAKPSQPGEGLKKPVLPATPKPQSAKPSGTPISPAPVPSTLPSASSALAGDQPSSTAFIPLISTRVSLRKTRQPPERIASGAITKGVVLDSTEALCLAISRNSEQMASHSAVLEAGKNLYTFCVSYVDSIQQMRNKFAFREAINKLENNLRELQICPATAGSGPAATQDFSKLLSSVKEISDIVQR
Sequence of Lck (P06239 whole entry): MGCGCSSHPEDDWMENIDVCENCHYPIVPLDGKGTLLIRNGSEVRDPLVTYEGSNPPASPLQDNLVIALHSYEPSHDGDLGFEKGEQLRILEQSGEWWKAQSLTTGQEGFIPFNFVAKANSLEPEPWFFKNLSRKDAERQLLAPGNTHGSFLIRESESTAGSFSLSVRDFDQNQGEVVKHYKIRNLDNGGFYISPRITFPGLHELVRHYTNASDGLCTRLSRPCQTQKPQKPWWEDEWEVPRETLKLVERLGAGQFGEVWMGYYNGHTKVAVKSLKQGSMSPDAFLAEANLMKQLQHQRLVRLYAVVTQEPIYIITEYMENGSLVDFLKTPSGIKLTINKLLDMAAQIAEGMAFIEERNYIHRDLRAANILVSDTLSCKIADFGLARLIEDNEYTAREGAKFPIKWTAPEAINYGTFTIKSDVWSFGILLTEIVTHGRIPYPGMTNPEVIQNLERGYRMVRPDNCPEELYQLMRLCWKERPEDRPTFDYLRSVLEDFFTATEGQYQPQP
Sequence of MAPKAP-K2 (P49137 whole entry): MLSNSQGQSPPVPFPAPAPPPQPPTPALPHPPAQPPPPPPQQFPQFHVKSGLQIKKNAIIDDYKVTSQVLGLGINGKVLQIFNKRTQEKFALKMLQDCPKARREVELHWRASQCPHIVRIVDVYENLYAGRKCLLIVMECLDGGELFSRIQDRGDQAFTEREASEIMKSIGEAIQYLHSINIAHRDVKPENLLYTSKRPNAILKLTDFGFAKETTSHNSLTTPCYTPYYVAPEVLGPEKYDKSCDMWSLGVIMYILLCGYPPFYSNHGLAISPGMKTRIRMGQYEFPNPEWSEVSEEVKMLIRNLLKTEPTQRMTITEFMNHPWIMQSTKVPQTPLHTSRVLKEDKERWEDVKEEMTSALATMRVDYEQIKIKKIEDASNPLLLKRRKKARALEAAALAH
Sequence of MINK1 (Q8N4C8 whole entry): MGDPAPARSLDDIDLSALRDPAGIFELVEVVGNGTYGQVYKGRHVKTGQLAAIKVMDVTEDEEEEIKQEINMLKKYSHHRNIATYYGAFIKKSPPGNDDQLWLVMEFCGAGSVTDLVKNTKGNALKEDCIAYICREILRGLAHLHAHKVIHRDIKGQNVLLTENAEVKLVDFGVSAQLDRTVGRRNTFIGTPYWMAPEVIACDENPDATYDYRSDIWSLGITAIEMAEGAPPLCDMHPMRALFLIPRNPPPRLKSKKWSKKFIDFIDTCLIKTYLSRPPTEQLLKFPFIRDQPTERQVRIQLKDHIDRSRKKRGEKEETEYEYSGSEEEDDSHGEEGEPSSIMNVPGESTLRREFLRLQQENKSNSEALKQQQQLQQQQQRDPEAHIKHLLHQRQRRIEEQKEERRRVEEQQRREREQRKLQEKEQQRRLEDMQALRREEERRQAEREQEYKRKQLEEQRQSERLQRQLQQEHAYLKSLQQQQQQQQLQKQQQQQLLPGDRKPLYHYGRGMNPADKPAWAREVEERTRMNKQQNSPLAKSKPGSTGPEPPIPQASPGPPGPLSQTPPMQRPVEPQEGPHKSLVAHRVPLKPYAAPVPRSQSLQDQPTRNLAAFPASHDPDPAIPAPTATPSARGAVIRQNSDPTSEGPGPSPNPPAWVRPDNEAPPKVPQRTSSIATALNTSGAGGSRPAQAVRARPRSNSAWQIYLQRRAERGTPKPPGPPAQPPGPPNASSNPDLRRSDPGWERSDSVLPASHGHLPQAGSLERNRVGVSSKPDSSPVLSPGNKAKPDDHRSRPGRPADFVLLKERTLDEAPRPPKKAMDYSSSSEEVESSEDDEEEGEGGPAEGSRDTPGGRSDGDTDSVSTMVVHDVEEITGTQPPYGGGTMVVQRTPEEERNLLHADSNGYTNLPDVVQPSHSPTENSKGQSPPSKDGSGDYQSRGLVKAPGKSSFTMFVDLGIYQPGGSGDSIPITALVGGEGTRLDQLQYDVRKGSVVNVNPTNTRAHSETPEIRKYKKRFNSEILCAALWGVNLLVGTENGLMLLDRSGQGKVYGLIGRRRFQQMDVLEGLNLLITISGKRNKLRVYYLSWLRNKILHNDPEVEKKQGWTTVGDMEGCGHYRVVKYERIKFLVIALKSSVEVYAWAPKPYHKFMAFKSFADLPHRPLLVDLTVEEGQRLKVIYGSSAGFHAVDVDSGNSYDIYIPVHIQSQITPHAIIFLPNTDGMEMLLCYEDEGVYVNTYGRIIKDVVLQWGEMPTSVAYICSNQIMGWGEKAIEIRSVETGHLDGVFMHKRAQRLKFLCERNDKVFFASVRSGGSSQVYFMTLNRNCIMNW
Sequence of TESK1 (Q15569 whole entry): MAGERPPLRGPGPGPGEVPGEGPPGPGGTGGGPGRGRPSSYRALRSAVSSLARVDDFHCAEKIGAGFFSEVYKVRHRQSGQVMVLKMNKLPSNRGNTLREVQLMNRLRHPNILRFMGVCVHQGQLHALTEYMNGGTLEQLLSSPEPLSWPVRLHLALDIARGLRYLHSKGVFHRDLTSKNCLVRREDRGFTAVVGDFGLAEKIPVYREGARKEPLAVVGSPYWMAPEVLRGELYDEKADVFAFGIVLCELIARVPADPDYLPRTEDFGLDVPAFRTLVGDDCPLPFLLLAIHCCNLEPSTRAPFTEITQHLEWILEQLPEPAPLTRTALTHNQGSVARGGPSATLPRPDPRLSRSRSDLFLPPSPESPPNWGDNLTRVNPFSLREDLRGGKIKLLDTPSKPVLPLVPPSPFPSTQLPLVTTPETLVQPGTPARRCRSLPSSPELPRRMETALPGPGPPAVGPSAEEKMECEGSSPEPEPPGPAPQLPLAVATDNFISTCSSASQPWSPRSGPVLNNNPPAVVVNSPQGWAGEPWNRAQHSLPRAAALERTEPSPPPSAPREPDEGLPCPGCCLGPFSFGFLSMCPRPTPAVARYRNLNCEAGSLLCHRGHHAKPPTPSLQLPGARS

One may read the remaining activity as the signal under treatment as a percentage of the control signal. As for `COc1ccc2sc(-c3cncc(N)c3)nc2c1` [compound 1, 5-(5-Methoxybenzo[d]thiazol-2-yl)pyridin-3-amine], the remaining activity at 1 µM on ABL (ABL, 1 μM) stood at 108%; on EPH-A4 (EPH-A4, 1 μM) it was 89%; on Lck (Lck, 1 μM), 106%; at MAPKAP-K2 (MAPKAP-K2, 1 μM), 122%; on MINK1 (MINK1, 1 μM), 108%; on PIM3 (PIM3, 1 μM) it was 90%. Moreover, the remaining activity at 1 µM was 110% on TESK1 (TESK1, 1 μM) and 116% on p38d MAPK (p38d MAPK, 1 μM). For the same molecule, the remaining activity at 100 µM on ABL (ABL, 100 μM) was determined as 46%; at EPH-A4 (EPH-A4, 100 μM), 85%; at Lck (Lck, 100 μM), 52%; on MAPKAP-K2 (MAPKAP-K2, 100 μM), 66%; on MINK1 (MINK1, 100 μM), 36%; at PIM3 (PIM3, 100 μM), 24%. The remaining activity at 100 µM on TESK1 (TESK1, 100 μM) came out at 28%; at p38d MAPK (p38d MAPK, 100 μM), 95%. For the same molecule, the “Remaining protein kinase activity” value on EPH-B2 (1 μM) worked out at 136%; on EPH-B2 (100 μM), 96%.
As to `COc1ccc2sc(-c3cncc(NC(C)=O)c3)nc2c1` [PST-001, N-(5-(5-Methoxybenzo[d]thiazol-2-yl)pyridin-3-yl)acetamide], the remaining activity at 1 µM on ABL came to 97%; on EPH-A4, 117%; at Lck, 93%; on MAPKAP-K2 it was 109%; on MINK1 it was 104%; on PIM3 it was 93%. Also, the values for the remaining activity at 1 µM on TESK1 and on p38d MAPK were 105% and 115%, respectively. Also, the remaining activity at 100 µM at ABL came to 99%; at EPH-A4 it was 106%; on Lck it was 100%; at MAPKAP-K2, 111%; at MINK1 it was 88%; at PIM3, 76%. In addition, the remaining activity at 100 µM at TESK1 stood at 85%; at p38d MAPK, 112%. For the same molecule, the “Remaining protein kinase activity” value on EPH-B2 (1 μM) amounted to 137%; at EPH-B2 (100 μM), 125%.
